Columns and labels:
[1] = tested on: H1299 cells; assay: Cytotoxicity / anti-proliferative activity in H1299 lung cancer cells; details: read-out: Cytotoxicity IC50 H1299; mean SD of three determinations
[2] = biological target: HDAC6 (Homo sapiens (Human), UniProt Q9UBN7); assay: Inhibition of purified HDAC6; details: read-out: HDAC 6 IC50; class II
[3] = biological target: HDAC10 (Homo sapiens (Human), UniProt Q969S8); assay: Inhibition of purified HDAC10; details: read-out: HDAC 10 IC50; class II
[4] = biological target: HDAC4 (Homo sapiens (Human), UniProt P56524); assay: Inhibition of purified HDAC4; details: read-out: HDAC 4 IC50; class II
[5] = biological target: HDAC2 (Homo sapiens (Human), UniProt Q92769); assay: Inhibition of purified HDAC2; details: read-out: HDAC 2 IC50; class I
[6] = biological target: HDAC11 (Homo sapiens (Human), UniProt Q96DB2); assay: Inhibition of purified HDAC11; details: read-out: HDAC 11 IC50; class IV
[7] = tested on: HeLa nuclear HDACs; assay: Inhibition of HeLa nuclear HDACs (HeLa nuclear extract, mainly HDACs1-3); format: biochemical; details: read-out: HeLa HDAC IC50
[8] = tested on: CL1-5 cells; assay: Cytotoxicity / anti-proliferative activity in CL1-5 lung cancer cells; details: read-out: Cytotoxicity IC50 Cl1-5; mean SD of three determinations
[9] = biological target: HDAC3 (Homo sapiens (Human), UniProt O15379); assay: Inhibition of purified HDAC3; details: read-out: HDAC 3 IC50; class I
[10] = tested on: Cl1-1 cells; assay: Cytotoxicity / anti-proliferative activity in CL1-1 lung cancer cells; details: read-out: Cytotoxicity IC50 Cl1-1; mean SD of three determinations
[11] = biological target: HDAC8 (Homo sapiens (Human), UniProt Q9BY41); assay: Inhibition of HDAC8; format: biochemical
[12] = biological target: HDAC1 (Homo sapiens (Human), UniProt Q13547); assay: Inhibition of purified HDAC1; format: biochemical; details: class I; read-out: HDAC 1 IC50
[13] = tested on: Ac-p53 (K379) in 32D-CM cells; assay: Western blot of Ac-p53 in CBFβ-SMMHC (CM)-expressing 32D cells; format: cell-based
From the text: Cells were lysed in RIPA buffer containing protease inhibitor cocktail (Roche) and MG132. Antibodies used for IP were conjugated with protein A/G beads using the antibody cross-linking kit (Pierce Biotechnology, Rockford, Ill.) following manufacturer's protocol. For Western blot, proteins were resolved in 10% SDS-PAGE. The antibodies used induced anti-FLAG (Sigma), anti-HDAC8, anti-CBFβ (Santa Cruz), anti-p53 (DO-1), anti-Ac-p53 (K379) (Cell Signaling), anti-p53 (Cell signaling) and anti-β-actin (Sigma). Horseradish peroxidase-conjugated anti-rabbit or anti-mouse secondary antibodies (Jackson ImmunoResearch, West Grove Pa.) were used, followed by detection using the SuperFemto kit (Pierce Biotechnology, Rockford, Ill.).
Class 1 HDACs, including HDAC1, HDAC2, and HDAC3, reportedly could inhibit p53 activity by deacetylating p53 [41-43]. […] To test this, we used lentivirus (pLKO. 1) mediated expression of 2 independent small-hairpin (sh)-RNA sequences against Hdac8 to specifically knock-down Hdac8 in 32D-CM cells. Cells were exposed to IR (3Gy) and analyzed for levels of p53 acetylation 6 h after.

[14] = tested on: p53 target genes in 32D-CM cells; assay: qRT-PCR of p53 target genes in 32D-CM cells; format: cell-based; details: 10 μM, 16 h

Sequence of HDAC8 (Q9BY41 whole entry): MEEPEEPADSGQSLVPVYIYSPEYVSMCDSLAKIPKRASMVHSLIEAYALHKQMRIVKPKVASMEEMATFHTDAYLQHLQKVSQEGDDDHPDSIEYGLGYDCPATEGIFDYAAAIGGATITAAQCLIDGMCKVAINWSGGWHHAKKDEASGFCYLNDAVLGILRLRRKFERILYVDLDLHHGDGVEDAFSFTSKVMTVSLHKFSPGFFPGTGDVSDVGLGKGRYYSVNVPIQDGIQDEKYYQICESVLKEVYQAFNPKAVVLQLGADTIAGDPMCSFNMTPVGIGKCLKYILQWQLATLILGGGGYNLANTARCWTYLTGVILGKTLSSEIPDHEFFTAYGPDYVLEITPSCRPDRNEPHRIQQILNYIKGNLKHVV
Sequence of HDAC10 (Q969S8 whole entry, species assumed): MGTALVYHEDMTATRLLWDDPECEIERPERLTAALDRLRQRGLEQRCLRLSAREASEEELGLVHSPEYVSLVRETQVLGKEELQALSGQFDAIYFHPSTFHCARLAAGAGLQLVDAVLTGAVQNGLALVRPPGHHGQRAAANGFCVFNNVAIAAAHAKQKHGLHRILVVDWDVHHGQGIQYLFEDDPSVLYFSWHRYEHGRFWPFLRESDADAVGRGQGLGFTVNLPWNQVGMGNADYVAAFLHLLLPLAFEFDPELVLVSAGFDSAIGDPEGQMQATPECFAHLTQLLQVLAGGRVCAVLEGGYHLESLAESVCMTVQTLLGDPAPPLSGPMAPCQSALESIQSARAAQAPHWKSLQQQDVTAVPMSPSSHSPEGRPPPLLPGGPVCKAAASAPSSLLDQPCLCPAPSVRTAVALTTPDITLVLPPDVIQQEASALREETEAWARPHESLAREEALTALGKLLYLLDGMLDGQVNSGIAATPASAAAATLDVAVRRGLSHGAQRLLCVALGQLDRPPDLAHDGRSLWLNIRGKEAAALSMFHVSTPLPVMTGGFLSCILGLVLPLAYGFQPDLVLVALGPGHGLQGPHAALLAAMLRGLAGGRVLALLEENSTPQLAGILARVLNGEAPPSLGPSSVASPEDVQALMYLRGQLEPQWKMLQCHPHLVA
Sequence of HDAC11 (Q96DB2 whole entry, species assumed): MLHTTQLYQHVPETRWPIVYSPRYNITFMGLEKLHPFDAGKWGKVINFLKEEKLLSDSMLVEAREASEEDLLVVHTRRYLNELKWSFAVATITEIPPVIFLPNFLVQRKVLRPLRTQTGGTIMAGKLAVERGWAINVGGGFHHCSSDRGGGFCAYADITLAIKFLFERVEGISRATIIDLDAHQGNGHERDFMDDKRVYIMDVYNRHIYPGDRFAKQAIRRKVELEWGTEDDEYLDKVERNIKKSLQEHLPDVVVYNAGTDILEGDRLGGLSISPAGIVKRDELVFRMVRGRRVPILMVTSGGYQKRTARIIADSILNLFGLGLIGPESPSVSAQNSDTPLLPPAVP
Sequence of HDAC4 (P56524 whole entry, species assumed): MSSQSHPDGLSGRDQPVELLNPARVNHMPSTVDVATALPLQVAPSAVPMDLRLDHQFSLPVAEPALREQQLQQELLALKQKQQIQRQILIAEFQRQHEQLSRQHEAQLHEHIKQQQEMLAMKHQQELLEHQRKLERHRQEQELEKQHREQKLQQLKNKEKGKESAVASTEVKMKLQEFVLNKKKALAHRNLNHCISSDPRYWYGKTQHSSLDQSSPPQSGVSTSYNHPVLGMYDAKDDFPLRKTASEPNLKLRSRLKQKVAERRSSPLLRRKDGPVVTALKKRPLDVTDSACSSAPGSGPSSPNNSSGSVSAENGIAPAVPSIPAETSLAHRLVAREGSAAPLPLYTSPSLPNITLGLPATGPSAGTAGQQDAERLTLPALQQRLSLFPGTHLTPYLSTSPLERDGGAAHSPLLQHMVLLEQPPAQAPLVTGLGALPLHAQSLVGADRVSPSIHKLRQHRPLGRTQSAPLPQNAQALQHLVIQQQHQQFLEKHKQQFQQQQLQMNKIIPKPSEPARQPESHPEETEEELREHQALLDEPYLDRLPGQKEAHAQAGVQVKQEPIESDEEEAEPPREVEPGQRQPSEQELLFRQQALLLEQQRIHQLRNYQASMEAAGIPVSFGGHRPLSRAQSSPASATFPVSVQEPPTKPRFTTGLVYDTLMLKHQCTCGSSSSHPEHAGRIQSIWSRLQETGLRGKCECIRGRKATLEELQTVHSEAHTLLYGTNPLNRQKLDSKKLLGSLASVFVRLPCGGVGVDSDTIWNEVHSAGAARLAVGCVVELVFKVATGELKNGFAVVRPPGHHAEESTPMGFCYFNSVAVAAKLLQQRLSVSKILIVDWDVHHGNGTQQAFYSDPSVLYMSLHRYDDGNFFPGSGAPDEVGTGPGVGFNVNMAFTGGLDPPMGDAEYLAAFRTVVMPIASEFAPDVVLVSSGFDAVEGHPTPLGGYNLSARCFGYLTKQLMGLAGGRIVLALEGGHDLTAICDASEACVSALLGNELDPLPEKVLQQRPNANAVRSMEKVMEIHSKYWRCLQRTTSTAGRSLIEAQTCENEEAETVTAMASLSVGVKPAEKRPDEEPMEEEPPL
Sequence of HDAC6 (Q9UBN7 whole entry, species assumed): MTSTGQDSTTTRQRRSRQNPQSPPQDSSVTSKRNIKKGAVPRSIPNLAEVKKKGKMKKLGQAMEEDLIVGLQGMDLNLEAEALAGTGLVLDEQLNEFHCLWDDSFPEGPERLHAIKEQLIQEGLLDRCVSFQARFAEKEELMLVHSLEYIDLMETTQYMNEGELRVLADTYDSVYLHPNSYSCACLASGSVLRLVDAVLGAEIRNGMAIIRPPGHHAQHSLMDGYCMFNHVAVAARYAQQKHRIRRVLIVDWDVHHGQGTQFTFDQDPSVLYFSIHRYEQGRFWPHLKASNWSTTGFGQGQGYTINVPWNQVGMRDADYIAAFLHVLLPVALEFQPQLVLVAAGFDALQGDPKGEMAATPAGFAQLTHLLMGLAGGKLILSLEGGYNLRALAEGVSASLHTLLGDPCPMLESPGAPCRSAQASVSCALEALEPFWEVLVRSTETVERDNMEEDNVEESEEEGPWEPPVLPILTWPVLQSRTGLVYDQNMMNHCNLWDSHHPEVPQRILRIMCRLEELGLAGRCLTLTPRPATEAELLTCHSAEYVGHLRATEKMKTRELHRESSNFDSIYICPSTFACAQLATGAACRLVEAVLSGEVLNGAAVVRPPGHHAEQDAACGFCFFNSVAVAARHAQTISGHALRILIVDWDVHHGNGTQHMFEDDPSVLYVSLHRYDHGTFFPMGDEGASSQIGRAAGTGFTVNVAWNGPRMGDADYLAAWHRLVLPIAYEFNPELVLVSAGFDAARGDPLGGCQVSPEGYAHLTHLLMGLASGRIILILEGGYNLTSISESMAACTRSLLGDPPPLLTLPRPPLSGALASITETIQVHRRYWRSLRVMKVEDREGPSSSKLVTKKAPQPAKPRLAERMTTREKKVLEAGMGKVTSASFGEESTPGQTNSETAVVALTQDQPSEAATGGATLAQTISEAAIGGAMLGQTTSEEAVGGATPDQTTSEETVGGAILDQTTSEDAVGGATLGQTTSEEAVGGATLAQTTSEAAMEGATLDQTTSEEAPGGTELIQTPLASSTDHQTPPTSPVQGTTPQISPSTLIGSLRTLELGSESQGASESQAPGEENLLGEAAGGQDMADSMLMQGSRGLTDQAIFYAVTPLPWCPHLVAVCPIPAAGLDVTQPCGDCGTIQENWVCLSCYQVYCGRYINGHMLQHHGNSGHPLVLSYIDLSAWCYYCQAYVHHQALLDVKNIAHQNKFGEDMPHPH
Sequence of HDAC1 (Q13547 whole entry, species assumed): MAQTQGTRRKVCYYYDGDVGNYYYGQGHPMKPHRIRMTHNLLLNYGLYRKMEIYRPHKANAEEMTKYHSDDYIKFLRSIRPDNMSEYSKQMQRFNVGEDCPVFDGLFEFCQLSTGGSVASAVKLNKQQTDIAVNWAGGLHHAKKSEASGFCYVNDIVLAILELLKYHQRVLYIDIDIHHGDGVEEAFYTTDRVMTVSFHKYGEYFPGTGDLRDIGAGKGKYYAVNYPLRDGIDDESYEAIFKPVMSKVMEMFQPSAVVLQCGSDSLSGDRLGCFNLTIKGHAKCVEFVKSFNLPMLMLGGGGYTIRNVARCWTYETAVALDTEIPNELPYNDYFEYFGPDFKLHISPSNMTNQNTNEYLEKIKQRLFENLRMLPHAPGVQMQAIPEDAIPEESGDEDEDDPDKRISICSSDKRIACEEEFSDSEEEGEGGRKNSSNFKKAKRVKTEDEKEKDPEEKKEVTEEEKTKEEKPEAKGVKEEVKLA
Sequence of HDAC2 (Q92769 whole entry, species assumed): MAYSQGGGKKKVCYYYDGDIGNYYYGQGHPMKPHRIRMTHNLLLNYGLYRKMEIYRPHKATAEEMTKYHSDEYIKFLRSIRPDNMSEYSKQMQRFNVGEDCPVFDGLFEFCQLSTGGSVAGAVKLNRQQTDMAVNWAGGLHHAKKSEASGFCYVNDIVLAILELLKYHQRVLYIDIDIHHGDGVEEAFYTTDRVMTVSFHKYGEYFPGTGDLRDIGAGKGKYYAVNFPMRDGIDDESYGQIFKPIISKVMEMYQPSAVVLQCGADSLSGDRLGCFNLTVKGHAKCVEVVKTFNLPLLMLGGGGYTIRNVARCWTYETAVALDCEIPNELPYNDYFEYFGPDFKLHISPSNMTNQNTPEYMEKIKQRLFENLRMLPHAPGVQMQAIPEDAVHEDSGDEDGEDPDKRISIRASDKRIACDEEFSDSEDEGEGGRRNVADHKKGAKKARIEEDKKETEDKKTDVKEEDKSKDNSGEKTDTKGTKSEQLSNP

Compound	IC50 [1] [nM]	IC50 [2] [nM]	IC50 [3] [nM]	IC50 [4] [nM]	IC50 [5] [nM]	IC50 [6] [nM]	IC50 [7] [nM]	IC50 [8] [nM]	IC50 [9] [nM]	IC50 [10] [nM]	fold more potent than 22a (HDAC8) [11] [fold]	fold more potent than PCI34051 for HDAC8 [11]	IC50 ([11]; mean SD of three determinations) [nM]	HDAC8 inhibitory activity compared with PCI34051 ([11]; result in words)	IC50 [12] [nM]	Ac-p53 level in CM-expressing cells ([13]; Western blot, 6 h)	Ac-p53 level, in combination with Nutlin-3 ([13]; compared to Nutlin-3 alone)	activation of p53 targets (Bax, Puma, p21, Gadd45b and LincRNA-p21) [14]
COc1ccc(/C=C/C(=O)NO)c(-c2ccc(Br)cc2)c1 [Compound 22b, (E)-N-Hydroxy-4-methoxy-2-(4-bromophenyl)cinnamide]	> 10	> 20	> 20	> 20	> 20	> 20	> 10000	> 10	4.8 ± 0.5	> 10	13	around ten	5.7 ± 0.1	superior to PCI34051	4.5 ± 0.1			
COc1ccc(Cn2ccc3ccc(C(=O)NO)cc32)cc1 [PCI34051, reference compound]	> 10						> 10000	> 10		> 10						remarkably increased Ac-p53	enhanced Ac-p53 compared to Nutlin-3 alone	Variable levels of activation

— patent publication US11505523B2, “HDAC8 inhibitors for treating cancer” (City of Hope, priority 2013, dated 2022)
